# In ChEMBL document CHEMBL2040769, “Lipase-catalyzed preparation of chromomycin A₃ analogues and biological evaluation for anticancer activity” (Bioorg Med Chem Lett, 2012):
# Key:
# NIH3T3 = experiment: Cytotoxicity against mouse NIH/3T3 cells; type: cell-based
# A2780 [1] = experiment: Ratio of IC50 for chromomycin to compound for human A2780 cells; type: functional
# COLO 205 [2] = experiment: Cytotoxicity against human COLO205 cells; type: functional, cell-based
# A549 = experiment: Cytotoxicity against human A549 cells; type: functional, cell-based
# A2780 [3] = experiment: Cytotoxicity against human A2780 cells; type: functional, cell-based
# COLO 205 [4] = experiment: Ratio of IC50 for chromomycin to compound for human COLO205 cells; type: functional
# COLO 205 [5] = experiment: Cytotoxicity against human COLO205 cells relative to chromomycin A3; type: functional; settings: pooled result: one value given for 4 cell lines, strains, targets or settings
# BXPC-3 = experiment: Cytotoxicity against human BxPC3 cells; type: functional, cell-based
SMILES,IC50 (NIH3T3),Ratio IC50 (A2780 [1]),IC50 (COLO 205 [2]),IC50 (A549),IC50 (A2780 [3]),Ratio IC50 (COLO 205 [4]),Ratio IC50 (COLO 205 [5]),IC50 (BXPC-3)
C=COC(=O)CCCCC(=O)O[C@H](C)[C@H](O)C(=O)[C@@H](OC)[C@@H]1Cc2cc3cc(O[C@H]4C[C@@H](O[C@@H]5C[C@@H](O)[C@H](OC)[C@@H](C)O5)[C@H](OC(C)=O)[C@@H](C)O4)c(C)c(O)c3c(O)c2C(=O)[C@H]1O[C@H]1C[C@H](O[C@H]2C[C@H](O[C@H]3C[C@@](C)(O)[C@@H](OC(C)=O)[C@H](C)O3)[C@H](O)[C@@H](C)O2)[C@H](O)[C@@H](C)O1,1.2 µM,5,0.012 µM,0.03 µM,0.005 µM,8,3.2,0.06 µM
CO[C@@H]1[C@H](O)C[C@@H](O[C@@H]2C[C@H](Oc3cc4cc5c(c(O)c4c(O)c3C)C(=O)[C@@H](O[C@H]3C[C@@H](O[C@H]4C[C@@H](O[C@H]6C[C@](C)(O)[C@@H](OC(C)=O)[C@H](C)O6)[C@H](O)[C@@H](C)O4)[C@H](O)[C@@H](C)O3)[C@H]([C@H](OC)C(=O)[C@@H](O)[C@@H](C)O)C5)O[C@H](C)[C@@H]2OC(C)=O)O[C@@H]1C [CHROMOMYCIN A3],1 µM,–,0.063 µM,0.1 µM,0.04 µM,–,–,0.13 µM
CCCCCCCCCC(=O)O[C@H](C)[C@H](O)C(=O)[C@@H](OC)[C@@H]1Cc2cc3cc(O[C@H]4C[C@@H](O[C@@H]5C[C@@H](O)[C@H](OC)[C@@H](C)O5)[C@H](OC(C)=O)[C@@H](C)O4)c(C)c(O)c3c(O)c2C(=O)[C@H]1O[C@H]1C[C@H](O[C@H]2C[C@H](O[C@H]3C[C@@](C)(O)[C@@H](OC(C)=O)[C@H](C)O3)[C@H](O)[C@@H](C)O2)[C@H](O)[C@@H](C)O1,1 µM,–,0.25 µM,0.5 µM,0.375 µM,–,0.17,0.8 µM
CCCC(=O)O[C@H](C)[C@H](O)C(=O)[C@@H](OC)[C@@H]1Cc2cc3cc(O[C@H]4C[C@@H](O[C@@H]5C[C@@H](O)[C@H](OC)[C@@H](C)O5)[C@H](OC(C)=O)[C@@H](C)O4)c(C)c(O)c3c(O)c2C(=O)[C@H]1O[C@H]1C[C@H](O[C@H]2C[C@H](O[C@H]3C[C@@](C)(O)[C@@H](OC(C)=O)[C@H](C)O3)[C@H](O)[C@@H](C)O2)[C@H](O)[C@@H](C)O1,0.75 µM,–,0.035 µM,0.185 µM,0.065 µM,–,0.45,0.45 µM
CCC(=O)O[C@H](C)[C@H](O)C(=O)[C@@H](OC)[C@@H]1Cc2cc3cc(O[C@H]4C[C@@H](O[C@@H]5C[C@@H](O)[C@H](OC)[C@@H](C)O5)[C@H](OC(C)=O)[C@@H](C)O4)c(C)c(O)c3c(O)c2C(=O)[C@H]1O[C@H]1C[C@H](O[C@H]2C[C@H](O[C@H]3C[C@@](C)(O)[C@@H](OC(C)=O)[C@H](C)O3)[C@H](O)[C@@H](C)O2)[C@H](O)[C@@H](C)O1,1 µM,–,0.125 µM,0.5 µM,0.25 µM,–,0.28,0.3 µM
CO[C@H]1[C@H](O)C[C@@H](O[C@@H]2C[C@H](Oc3cc4cc5c(c(O)c4c(O)c3C)C(=O)[C@@H](O[C@H]3C[C@H](O[C@H]4C[C@H](O[C@H]6C[C@@](C)(O)[C@@H](OC(C)=O)[C@H](C)O6)[C@H](O)[C@@H](C)O4)[C@H](O)[C@@H](C)O3)[C@H]([C@H](OC)C(=O)[C@@H](O)[C@@H](C)OC(C)=O)C5)O[C@H](C)[C@H]2OC(C)=O)O[C@@H]1C,0.8 µM,–,0.065 µM,0.2 µM,0.25 µM,–,0.34,0.45 µM
